Tests used:
[1] = test system: primary human ciliary muscle cells (h-CM); test: Total prostaglandin (PG) release from primary h-CM cells (EIA); format: cell-based; settings: Homo sapiens, 1 h, 1 hour at 37° C., class symbols (in μM)
Procedure: BK agonist compounds of Formula 1 were evaluated for the ability to induce prostaglandin (PG) release from primary human ciliary muscle cells (h-CM). Briefly, h-CM cells were grown to confluence in FNC-coated 24-well culture plates and serum-starved (0.8% FBS) for 24 hours prior to the experiment. Cells were stimulated with a 9-pt concentration-response (0.1 nM-10 μM) of bradykinin or BK agonist for 1 hour at 37° C. with subsequent sample recovery and processing for total PG measurement. Total PG measurement was determined using a total Prostaglandin Screening EIA kit (cat#514012) purchased from Cayman Chemical (Ann Arbor, Mich.). The assay was conducted according to the package insert from the manufacturer.

[2] = target: T1, BK receptors in human ciliary muscle cells (h-CM) (Homo sapiens, UniProt P30411); test: Functional assay measuring [Ca2+]i mobilization (FLIPR) in h-CM cells; format: cell-based; settings: class symbols (in μM), read-out: CaM (EC50)
T1 construct: h-CM cells expressing BK receptors were seeded; endogenous in cells; host or cells: human ciliary muscle (h-CM) cells
T1 sequence (P30411 1-391): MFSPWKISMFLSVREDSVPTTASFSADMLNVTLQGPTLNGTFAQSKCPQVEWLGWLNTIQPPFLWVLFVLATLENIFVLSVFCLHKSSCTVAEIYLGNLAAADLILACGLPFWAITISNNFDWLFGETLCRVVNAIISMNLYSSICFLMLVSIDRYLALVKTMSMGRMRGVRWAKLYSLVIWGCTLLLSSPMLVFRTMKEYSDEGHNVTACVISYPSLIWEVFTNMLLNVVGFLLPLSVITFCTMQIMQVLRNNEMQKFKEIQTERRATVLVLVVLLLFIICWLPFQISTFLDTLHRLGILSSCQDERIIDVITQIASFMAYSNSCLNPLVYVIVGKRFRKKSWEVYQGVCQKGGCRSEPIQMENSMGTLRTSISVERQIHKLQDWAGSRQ
Procedure: On the day of the experiment, media was removed, cells were rinsed and 50 μL of serum-free media added. One vial of FLIPR Calcium Assay Kit dye was reconstituted in 50 mL of a FLIPR buffer consisting of Hank's Balanced Salt Solution (HBSS), 20 mM HEPES, and 2.5 mM probenecid, pH 7.4. Cells were loaded with the calcium-sensitive dye by addition of an equal volume (50 μL) to each well of the 96-well plate and incubated with dye for 1 h at 23° C. […] After this time, the test compound plate and cell plate were placed in a Fluorescence Imaging Plate Reader (FLIPR-Tetra®) instrument (Molecular Devices/MDSPharma, Sunnyvale, Calif.). At the beginning of an experimental run, a signal test was performed to check the basal fluorescence signal from the dye-loaded cells and the uniformity of the signal across the plate. […] An aliquot (25 μL) of the test compound was added to the existing 100 μL dye-loaded cells at a dispensing speed of 50 μL/sec. Intracellular calcium mobilization was measured by monitoring real-time changes in cellular fluorescence upon test compound addition. Fluorescence data were collected in real-time at 1.0 sec intervals for the first 60 seconds and at 6.0 second intervals for an additional 120 seconds. Baseline fluorescence readings were normalized across the plate and background-corrected from negative control wells. […] EC50 values were determined by 4-parameter nonlinear curve fitting of the concentration-response curve. Calibration of the instrument was performed using manufacturer's standard procedures.

[3] = target: T2, recombinant human bradykinin B2 receptor (Homo sapiens, UniProt P30411); test: [3H]-BK competition radioligand binding to human cloned B2 receptor (CHO cell membranes); settings: 0.2 nM [3H]-bradykinin, CHO membranes, 60 min 23° C.; mean ± SEM or single value; Ki from IC50 by Cheng-Prusoff; read-out: [3H]-BK Binding to Human Cloned B2 Receptor (Ki)
T2 construct: expressed in transfected cells; host or cells: Chinese hamster ovary (CHO) cells, membrane homogenates
T2 sequence (P30411 1-391): T1 sequence (P30411 1-391)
Procedure: Chinese hamster ovary (CHO) cell membrane homogenates (2.5 μg protein) expressing the recombinant human bradykinin B2 receptor were incubated for 60 min at 23° C. with 0.2 nM [^3H]-bradykinin (95.5 Ci/mmole, PerkinElmer) in the absence or presence of the test compound in a buffer containing 50 mM Tris/HCl (pH 7.4), 0.2 g/L 1-10-phenanthroline and 0.1% BSA. All reagent and test compound additions to the assay plates were made using Biomek 3000 robotic workstations (Beckman Instruments, Fullerton, Calif.). Nonspecific binding was determined in the presence of 1 μM unlabeled bradykinin. Following the incubation, the assay was terminated by rapid filtration under vacuum through glass fiber filters (GF/C, PerkinElmer) presoaked with 0.3% polyethyleneimine and rinsed several times with an ice-cold 50 mM Tris-HCl buffer using a 96-sample cell harvester (Tomtec). The filters were air-dried and the radioactivity counted in a beta-scintillation counter (Topcount, PerkinElmer) using a scintillation cocktail (Microscint 20, PerkinElmer) (Sharif and Whiting, Neurochem. Int. 18: 89-96, 1991). Competitive binding inhibition curves were generated using a 7-point concentration—response of test compound in duplicate. Bradykinin peptide was also tested as an internal control in the assay. The data were analyzed using nonlinear, iterative curve-fitting to obtain the potency and intrinsic activities of the test agents as previously described (Sharif et al. J. Pharmacol. Exp. Ther. 286: 1094-1102, 1998; Sharif et al. Invest Ophthalmol. Vis. Sci. 39:2562-2571, 1998; Kelly et al. J. Pharmacol. Exp. Ther. 304: 238-245, 2003). Determined IC50 values were converted to Ki values using the standard Cheng-Prusoff equation.

Row | Compound | EC50 [1] [µM] | EC50 [2] [µM] | Ki [3] [nM]
1 | COc1nc2c(OCc3c(Cl)ccc(N(C)C(=O)CNC(=O)CCc4cnc(NC(C)=O)nc4)c3Cl)cccc2n1Cc1ccccn1 [Compound 77] | 0.1 to 1 | < 0.1 | 229
2 | COc1nc2c(OCc3c(Cl)ccc(N(C)C(=O)CNC(=O)CNC4CCC(NC(C)=O)CC4)c3Cl)cccc2n1Cc1ccccn1 (stereo not drawn) [Compound 10, 2-(2-((4-acetamidocyclohexyl)amino)acetamido)-N-(2,4-dichloro-3-(((2-methoxy-1-(pyridin-2-ylmethyl)-1H-benzo[d]imidazol-4-yl)oxy)methyl)phenyl)-N-methylacetamide] | > 1 | < 0.1 | 76 ± 16
3 | CNC(=O)N1CCC(N2CCC(C(=O)NCC(=O)N(C)c3ccc(Cl)c(COc4cccc5c4nc(OC)n5Cc4ccccn4)c3Cl)C2)C1 (stereo not drawn) [Compound 24, N3-(2-((2,4-dichloro-3-((2-methoxy-1-(pyridin-2-ylmethyl)-1H-benzo[d]imidazol-4-yloxy)methyl)phenyl)(methyl)amino)-2-oxoethyl)-N1′-methyl-1,3′-bipyrrolidine-1′,3-dicarboxamide] | 0.1 to 1 | < 0.1 | 171 ± 97
4 | CNC(=O)c1ccc(CCC(=O)NCC(=O)N(C)c2ccc(Cl)c(COc3cccc4c(OCc5nccn5C)cc(C)nc34)c2Cl)cc1 [Compound 71] | < 0.1 | < 0.1 | 17
5 | CCc1nc2c(OCc3c(Cl)ccc(N(C)C(=O)CNC(=O)CCc4ccc(NC(C)=O)nc4)c3Cl)cccn2c1C(O)c1ccccn1 (stereo not drawn) [Compound 57] | > 1 | 0.1 to 1 | 852
6 | CNC(=O)N1CCN(CC(=O)NCC(=O)N(C)c2ccc(Cl)c(COc3cccc4c3nc(OC)n4Cc3ccccn3)c2Cl)CC1 [Compound 20] | > 1 | 0.1 to 1 | 1090 ± 138
7 | CNC(=O)c1ncc(CCC(=O)NCC(=O)N(C)c2ccc(Cl)c(COc3cccc4c3nc(OC)n4Cc3ccccn3)c2Cl)cn1 [Compound 42, 5-(3-((2-((2,4-dichloro-3-(((2-methoxy-1-(pyridin-2-ylmethyl)-1H-benzo[d]imidazol-4-yl)oxy)methyl)phenyl)(methyl)amino)-2-oxoethyl)amino)-3-oxopropyl)-N-methylpyrimidine-2-carboxamide] | 0.1 to 1 | < 0.1 | 194
8 | CNC(=O)N1CCN(CCC(=O)NCC(=O)N(C)c2ccc(Cl)c(COc3cccc4c3nc(OC)n4Cc3ccccn3)c2Cl)CC1 [Compound 7, 4-(3-((2-((2,4-dichloro-3-(((2-methoxy-1-(pyridin-2-ylmethyl)-1H-benzo[d]imidazol-4-yl)oxy)methyl)phenyl)(methyl)amino)-2-oxoethyl)amino)-3-oxopropyl)-N-methylpiperazine-1-carboxamide] | < 0.1 | < 0.1 | 118 ± 2

The next lines start with the values.

Row | EC50 [1] [µM] | EC50 [2] [µM] | Ki [3] [nM] | Compound
9 | 0.1 to 1 | 0.1 to 1 | 11 | CNC(=O)c1ccc(CCC(=O)NCC(=O)N(C)c2ccc(Cl)c(COc3cccc4c(OCc5ccccn5)cc(C)nc34)c2Cl)cn1 [Compound 27, 5-(3-((2-((2,4-dichloro-3-(((2-methyl-4-(pyridin-2-ylmethoxy)quinolin-8-yl)oxy)methyl)phenyl)(methyl)amino)-2-oxoethyl)amino)-3-oxopropyl)-N-methylpicolinamide]
10 | 0.1 to 1 | < 0.1 | 184 | COc1nc2c(OCc3c(Cl)ccc(N(C)C(=O)CNC(=O)CCc4ccc(NC(=O)CN(C)C)nc4)c3Cl)cccc2n1Cc1ccccn1 [Compound 73]
11 | 0.1 to 1 | < 0.1 | 105 | COc1nc2c(OCc3c(Cl)ccc(N(C)C(=O)CNC(=O)[C@@H]4CCN(C(=O)OC(C)(C)C)C4)c3Cl)cccc2n1Cc1ccccn1 [Compound 62]
12 | 0.1 to 1 | 0.1 to 1 | 3 | CNC(=O)c1ccc(CCC(=O)NCC(=O)N(C)c2ccc(Cl)c(COc3cccc4c(OCc5ccccn5)cc(C)nc34)c2Cl)cc1 [Compound 30]
13 | 0.1 to 1 | < 0.1 | 544 | COc1nc2c(OCc3c(Cl)ccc(N(C)C(=O)CNC(=O)COc4cnc(NC(C)=O)nc4)c3Cl)cccc2n1Cc1ccccn1 [Compound 75]
14 | 0.1 to 1 | 0.1 to 1 | 514 | CNC(=O)[C@@H]1CC[C@H](CCC(=O)NCC(=O)N(C)c2ccc(Cl)c(COc3cccc4c3nc(OC)n4Cc3ccccn3)c2Cl)CN1 [Compound 39, (2S,5R)-5-(3-((2-((2,4-dichloro-3-(((2-methoxy-1-(pyridin-2-ylmethyl)-1H-benzo[d]imidazol-4-yl)oxy)methyl)phenyl)(methyl)amino)-2-oxoethyl)amino)-3-oxopropyl)-N-methylpiperidine-2-carboxamide]
15 | < 0.1 | < 0.1 | 78.3 | COc1nc2c(OCc3c(Cl)ccc(N(C)C(=O)CNC(=O)CN4CCO[C@@H](C(=O)NC5CC5)C4)c3Cl)cccc2n1Cc1ccccn1 [Compound 84]
16 | < 0.1 | < 0.1 | 42 | CNC(=O)c1ccc(CCC(=O)NCC(=O)N(C)c2ccc(C)c(COc3cccc4c3nc(OC)n4Cc3ccccn3)c2C)cc1 [Compound 56, 4-(3-((2-((3-(((2-methoxy-1-(pyridin-2-ylmethyl)-1H-benzo[d]imidazol-4-yl)oxy)methyl)-2,4-dimethylphenyl)(methyl)amino)-2-oxoethyl)amino)-3-oxopropyl)-N-methylbenzamide]
17 | > 1 | < 0.1 | 273 | COc1nc2c(OCc3c(C)ccc(N(C)C(=O)CNC(=O)CCc4cnc5[nH]c(=O)oc5c4)c3C)cccc2n1Cc1ccccn1 [Compound 3, N-(2-((3-(((2-methoxy-1-(pyridin-2-ylmethyl)-1H-benzo[d]imidazol-4-yl)oxy)methyl)-2,4-dimethylphenyl)(methyl)amino)-2-oxoethyl)-3-(2-oxo-2,3-dihydrooxazolo[4,5-b]pyridin-6-yl)propanamide]
18 | 0.1 to 1 | < 0.1 | 450 | CNC(=O)N1CCN(CC(F)(F)C(=O)NCC(=O)N(C)c2ccc(Cl)c(COc3cccc4c3nc(OC)n4Cc3ccccn3)c2Cl)CC1 [Compound 40, 4-(3-((2-((2,4-dichloro-3-(((2-methoxy-1-(pyridin-2-ylmethyl)-1H-benzo[d]imidazol-4-yl)oxy)methyl)phenyl)(methyl)amino)-2-oxoethyl)amino)-2,2-difluoro-3-oxopropyl)-N-methylpiperazine-1-carboxamide]
19 | 0.1 to 1 | < 0.1 | 599 | COc1nc2c(OCc3c(Cl)ccc(N(C)C(=O)CNC(=O)CCCNC(C)=O)c3Cl)cccc2n1Cc1ccccn1 [Compound 70]

Reference: patent publication US8252793B2, “Bradykinin receptor agonists and uses thereof to treat ocular hypertension and glaucoma” (Alcon Research, Ltd., priority 2010, dated 2012)
